Counter-ions that a name gives are not always drawn.
Key:
p53 Y220C = p53 Y220C (Homo sapiens, UniProt P04637, Y220C); experiment: Luciferase Reporter Assay (Luc), p53 response element, NClH1299 cells with inducible p53 Y220C; format: cell-based; details: luciferase reporter, NClH1299 inducible p53 Y220C, 6 hour; for Emax: 10 uM tool compound as positive control; for AC50: read-out: Luc P53 Y220C AC50
Procedure, shortened: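 Steps: seed 5,000 cells/well; induce mutant p53 with 0.5 ug/mL doxycycline for 24 h; treat with compound 6 h; add equal volume One-Glo, shake 5 min at room temperature; measure luciferase immediately.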

[1] = target: T1, p53 Y220C mutant protein (amino acid residues 94-293) (Homo sapiens, UniProt P04637, Y220C); experiment: Thermal Shift Assay (TSA), dTM; format: binding; details: thermal shift; for ΔTm at 100 µM: 100 uM compound, read-out: TSA P53 Y220C dTM (100 uM); for ΔTm at 10 µM: 10 uM compound, read-out: TSA P53 Y220C dTM (10 uM)
T1 construct: p53 Y220C mutant protein (amino acid residues 94-293)
Method: Thermal Shift Assay (TSA) Protocol
5 μM recombinant p53 Y220C mutant protein (amino acid residues 94-293) was incubated with 10 μM or 100 μM compound for 3 hours at 20 °C in buffer containing 20 mM HEPES, pH7.4, 100 mM NaCl, 0.01% Pluronic F-127, and 1% DMSO in the presence of 400-fold diluted Sypro Orange (ThermoFisher Scientific catalog number 4461146), on a 384-well PCR plate (Applied Biosystems catalog number 4483285). The volume was 5 μL/well. The sealed plate was then loaded onto a QuantStudio 7 Flex instrument for melting temperature (TM) measurement. The temperature was increased from 30 °C to […], at a rate of 0.03 °C/second. Data were fit into a Boltzmann two-state model to determine the TM.

H1299 p53 R273H = experiment: Cell Proliferation Assay (CellTiter-Glo, CTG), H1299 p53 R273H (NClH1299-inducible p53 R273H); format: cell-based; details: Homo sapiens, NCI-H1299, 120 h, CellTiter-Glo, H1299 p53 R273H, 5 days
Procedure, shortened: (§1)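 Cells seeded at 250-500 per well and exposed to compound for 5 days. Viability read by CellTiter-Glo luminescence after 10 min at room temperature; IC50 calculated. H1299 lines carry Tet-One inducible p53 mutant constructs introduced by lentiviral transduction.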

H1299 p53 Y220C = experiment: Cell Proliferation Assay (CellTiter-Glo, CTG), H1299 p53 Y220C (NClH1299-inducible p53 Y220C); format: cell-based; details: Homo sapiens, NCI-H1299, 120 h, CellTiter-Glo, H1299 p53 Y220C, 5 days
Procedure, shortened: as §1

NUGC3 p53 Y220C = experiment: Cell Proliferation Assay (CellTiter-Glo, CTG), NUGC3 p53 Y220C; format: cell-based; details: Homo sapiens, NUGC-3, 120 h, CellTiter-Glo, NUGC3 p53 Y220C, 5 days
Procedure, shortened: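 Tet-One inducible p53 Y220C or R273H constructs were stably introduced into NCI-H1299 by lentiviral transduction; NUGC3 was used as is. Cells (250-500 per well) were exposed to compound for 5 days, then CellTiter-Glo was added for 10 min at room temperature and IC50 was calculated from luminescence.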

Row | Structure (SMILES) | Emax (p53 Y220C) | AC50 (p53 Y220C) | ΔTm at 100 µM [1] | IC50 (H1299 p53 R273H) | IC50 (H1299 p53 Y220C) | IC50 (NUGC3 p53 Y220C) | ΔTm at 10 µM [1]
1 | CNC(=O)c1ccc(NCC#Cc2nc3c(NC4CCN(C)CC4)cc(NC(=O)CCl)cn3c2CC(F)(F)F)c(OC)c1 [Example 91] | < 70% | > 3 µM | ≥ 10 °C | ≥ 10 µM | > 3 µM | > 3 µM | 
2 | CN1CC[C@@H](Nc2cccn3c(CC(F)(F)F)c(C#CCN)nc23)[C@@H](F)C1 [Example 75, (3S,4R)—N-[2-(3-aminoprop-1-yn-1-yl)-3-(2,2,2-trifluoroethyl)imidazo[1,2-a]pyridin-8-yl]-3-fluoro-1-methylpiperidin-4-amine] | < 70% | > 3 µM | 1 to 5 °C | ≥ 10 µM | > 3 µM | > 3 µM | 
3 | COc1cc(P(C)(C)=O)ccc1NCC#Cc1cc2c(N[C@@H]3CCN(C)C[C@@H]3F)nccn2c1SC(F)(F)F [Example 185, (3S,4R)—N-[7-(3-{[4-(dimethylphosphoryl)-2-methoxyphenyl]amino}prop-1-yn-1-yl)-6-[(trifluoromethyl)sulfanyl]pyrrolo[1,2-a]pyrazin-1-yl]-3-fluoro-1-methylpiperidin-4-amine; formic acid] | 80 to 90% | < 0.75 µM |  | ≥ 10 µM | < 0.75 µM | < 0.75 µM | ≥ 10 °C
4 | CNC(=O)c1ccc(NCC#Cc2nc3c(N[C@@H]4CCN(C)C[C@@H]4F)cccn3c2SC(F)(F)F)c(OC)c1 [Example 28, 4-{[3-(8-{[(3S,4R)-3-fluoro-1-methylpiperidin-4-yl]amino}-3-[(trifluoromethyl)sulfanyl]imidazo[1,2-a]pyridin-2-yl)prop-2-yn-1-yl]amino}-3-methoxy-N-methylbenzamide, formic acid salt] | 80 to 90% | < 0.75 µM | ≥ 10 °C | 8 to 10 µM | < 0.75 µM | < 0.75 µM | ≥ 10 °C
5 | C=C(C)C(=O)Nc1cc(NC2CCN(C)CC2)c2nc(C#CCNc3ccc(C(=O)NC)cc3OC)c(CC(F)(F)F)n2c1 [Example 13, 3-methoxy-N-methyl-4-[(3-{8-[(1-methylpiperidin-4-yl)amino]-6-(2-methylprop-2-enamido)-3-(2,2,2-trifluoroethyl)imidazo[1,2-a]pyridin-2-yl}prop-2-yn-1-yl)amino]benzamide, formic acid salt] | < 70% |  | 1 to 5 °C | ≥ 10 µM | > 3 µM | > 3 µM | 
6 | C=C(F)C(=O)Nc1cc(NC2CCN(C)CC2)c2nc(C#CCNc3ccc(C(=O)NC)cc3OC)c(CC(F)(F)F)n2c1 [Example 90, 4-({3-[6-(2-fluoroprop-2-enamido)-8-[(1-methylpiperidin-4-yl)amino]-3-(2,2,2-trifluoroethyl)imidazo[1,2-a]pyridin-2-yl]prop-2-yn-1-yl}amino)-3-methoxy-N-methylbenzamide] | < 70% | > 3 µM | 1 to 5 °C | ≥ 10 µM | > 3 µM | > 3 µM | 
7 | C=CC(=O)Nc1cc(NC2CCN(C)CC2)c2nc(C#CCNc3ccc(C(=O)NC)cc3OC)c(CC(F)(F)F)n2c1 [Example 42, 3-methoxy-N-methyl-4-[(3-{8-[(1-methylpiperidin-4-yl)amino]-6-(prop-2-enamido)-3-(2,2,2-trifluoroethyl)imidazo[1,2-a]pyridin-2-yl}prop-2-yn-1-yl)amino]benzamide] | < 70% | > 3 µM | < 1 °C | ≥ 10 µM | > 3 µM | > 3 µM | 
8 | C=CC(=O)N(C)c1c(C#CCNc2ccc(C(=O)NC)cc2OC)nc2c(N[C@@H]3CCN(C)C[C@@H]3F)cccn12 [Example 26, 4-{[3-(8-{[(3S,4R)-3-fluoro-1-methylpiperidin-4-yl]amino}-3-(N-methylprop-2-enamido)imidazo[1,2-a]pyridine-2-yl)prop-2-yn-1-yl]amino}-3-methoxy-N-methylbenzamide] | < 70% | > 3 µM | 5 to 10 °C | ≥ 10 µM | > 3 µM | > 3 µM | 

From US20260374766A1, “METHODS FOR TREATING CANCER” (Antares Therapeutics, Inc., priority 2022, published 2026)
